Counter-ions that a name gives are not always drawn.
Key:
[1] = biological target: T1, human norepinephrine transporter (hNET) (Homo sapiens, UniProt P23975); experiment: hNET receptor binding, [125I]-RTI-55, HEK-293 membranes; details: Cheng-Prusoff, read-out: NET Ki
T1 construct: expressed in transfected cells; host or cells: HEK-293, membranes
Experimental: Cell pastes of HEK-293 cells transfected with a human norepinephrine transporter cDNA were prepared. The cell pastes were resuspended in 400 to 700 ml of Krebs-HEPES assay buffer (25 mM HEPES, 122 mM NaCl, 3 mM KCl, 1.2 mM MgSO4, 1.3 mM CaCl2, and 11 mM glucose, pH 7.4) with a Polytron homogenizer at setting 7 for 30 seconds. Aliquots of membranes (5 mg/ml protein) were stored in liquid nitrogen until used.
The binding assay was set up in Beckman deep-well polypropylene plates with a total volume of 250 μl containing: drug (10^−5M to 10^−12M), cell membranes, and […] [^125I]-RTI-55 (Perkin Elmer, NEX-272; specific activity 2200 Ci/mmol). The reaction was incubated by gentle agitation for 90 minutes at room temperature and was terminated by filtration through Whatman GF/C filter plates using a Brandel 96-well plate harvester. Scintillation fluid (100 μl) was added to each well, and bound [^125I]-RTI-55 was determined using a Wallac Trilux Beta Plate Counter. Test compounds were run in duplicate, and specific binding was defined as the difference between binding in the presence and absence of 10 μM desipramine.
Excel and GraphPad Prism software were used for data calculation and analysis. IC50 values were converted to Ki values using the Cheng-Prusoff equation. The Ki values (nM) for the hNET are reported below in Table 1.

[2] = biological target: T2, human serotonin transporter (hSERT) (Homo sapiens, UniProt P31645); experiment: hSERT receptor binding, [125I]-RTI-55, HEK-293 membranes; details: [125I]-RTI-55, HEK-293 membranes, Cheng-Prusoff; read-out: SERT Ki
T2 construct: expressed in transfected cells; host or cells: HEK-293, membranes
T2 sequence (P31645 whole entry): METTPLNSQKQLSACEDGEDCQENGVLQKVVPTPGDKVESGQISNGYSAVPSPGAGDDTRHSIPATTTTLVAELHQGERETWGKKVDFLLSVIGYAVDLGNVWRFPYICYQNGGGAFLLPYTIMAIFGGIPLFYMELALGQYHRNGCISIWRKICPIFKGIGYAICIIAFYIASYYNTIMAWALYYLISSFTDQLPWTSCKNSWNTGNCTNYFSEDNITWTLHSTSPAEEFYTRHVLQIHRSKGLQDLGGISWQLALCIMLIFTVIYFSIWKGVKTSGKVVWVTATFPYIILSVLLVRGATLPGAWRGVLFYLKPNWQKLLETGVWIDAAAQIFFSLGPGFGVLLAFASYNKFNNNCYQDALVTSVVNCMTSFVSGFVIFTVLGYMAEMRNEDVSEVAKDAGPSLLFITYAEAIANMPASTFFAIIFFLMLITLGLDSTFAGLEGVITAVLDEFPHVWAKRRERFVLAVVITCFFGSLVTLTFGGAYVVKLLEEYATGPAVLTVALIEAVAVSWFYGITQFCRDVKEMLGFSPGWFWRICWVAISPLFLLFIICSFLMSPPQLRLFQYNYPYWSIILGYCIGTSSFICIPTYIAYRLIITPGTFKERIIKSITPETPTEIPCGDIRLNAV
Experimental: Cell pastes of HEK-293 cells transfected with a human serotonin transporter cDNA were prepared. […] Aliquots of membranes (−2.5 mg/ml protein) were stored in liquid nitrogen until used.
The reaction was incubated and gently agitated for 90 minutes at room temperature, and terminated by removal of assay volume. […] Test compounds were run in duplicate, and specific binding was defined as the difference between binding in the presence and absence of 10 μM citalopram. Excel and GraphPad Prism software were used for data calculation and analysis. IC50 values were converted to Ki values using the Cheng-Prusoff equation.

T1 sequence (P23975 whole entry): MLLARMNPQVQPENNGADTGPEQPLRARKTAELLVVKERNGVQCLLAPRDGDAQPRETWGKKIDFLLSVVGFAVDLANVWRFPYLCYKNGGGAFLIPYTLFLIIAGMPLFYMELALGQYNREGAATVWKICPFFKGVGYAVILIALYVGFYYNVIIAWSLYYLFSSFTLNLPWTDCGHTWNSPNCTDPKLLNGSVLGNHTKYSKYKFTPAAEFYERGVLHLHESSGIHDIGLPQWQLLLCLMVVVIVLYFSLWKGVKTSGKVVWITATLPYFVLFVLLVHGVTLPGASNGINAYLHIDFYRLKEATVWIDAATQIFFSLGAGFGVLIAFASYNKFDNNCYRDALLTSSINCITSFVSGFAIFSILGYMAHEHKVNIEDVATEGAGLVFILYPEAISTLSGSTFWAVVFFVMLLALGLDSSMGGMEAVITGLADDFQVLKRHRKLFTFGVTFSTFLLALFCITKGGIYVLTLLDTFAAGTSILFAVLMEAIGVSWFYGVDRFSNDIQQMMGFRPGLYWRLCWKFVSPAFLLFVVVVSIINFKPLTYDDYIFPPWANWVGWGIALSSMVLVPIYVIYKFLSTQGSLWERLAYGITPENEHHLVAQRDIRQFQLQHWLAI

Ki [1] [µM]	Ki [2] [µM]	SMILES
0.00377	0.142	Fc1cccc([C@H](Oc2cccc(F)c2F)[C@@H]2CNCCO2)c1 [Example 39, (2S)-2-[(1S)-(2,3-Difluorophenoxy)(3-fluorophenyl)methyl] morpholine hydrochloride]
0.0043	0.158	COc1cc(C)ccc1O[C@@H](c1ccccc1)[C@@H]1CNCCO1 [Example 40, (2S)-2-[(1S)-(2-Methoxy-4-methylphenoxy)phenylmethyl] morpholine hydrochloride]
0.0114	0.0692	COc1cc(C)ccc1O[C@@H](c1ccc(F)cc1)[C@@H]1CNCCO1 [Example 42, (2S)-2-[(1S)-(2-methoxy-4-methylphenoxy)4-fluorophenyl) methyl] morpholine hydrochloride]
1.7	0.0047	COc1cc(C)ccc1O[C@H](c1ccc(F)cc1)[C@H]1CNCCO1 [Example 43, (2R)-2-[(1R)-(2-Methoxy-4-methylphenoxy)4-Fluorophenyl) methyl] morpholine hydrochloride]
0.0333	0.0748	Fc1cccc([C@H](Oc2ccc(Cl)cc2F)[C@@H]2CNCCO2)c1 [Example 44, (2S)-2-[(1S)-(4-Chloro-2-fluorophenoxy)(3-fluorophenyl)methyl] morpholine hydrochloride]
0.0069	0.967	Fc1cccc([C@H](Oc2c(F)cccc2F)[C@@H]2CNCCO2)c1 [Example 47, (2S)-2-[(1S)-(2,6-Difluorophenoxy)-(3-fluorophenyl)methyl] morpholine hydrochloride]
0.0068	0.194	Cc1ccccc1O[C@@H](c1cccc(F)c1)[C@@H]1CNCCO1 [Example 49, (2S)-2-[(1S)-(3-Fluorophenyl)-o-tolyloxy-methyl] morpholine hydrochloride]
0.008	1.07	COc1cccc(F)c1O[C@@H](c1cccc(F)c1)[C@@H]1CNCCO1 [Example 50, (2S)-2-[(1S)-(2-Fluoro-6-methoxyphenoxy)(3-fluorophenyl)methyl] morpholine hydrochloride]
0.0266	1.04	COc1ccc(C)cc1O[C@@H](c1cccc(F)c1)[C@@H]1CNCCO1 [Example 51, (2S)-2-[(1S)-(3-Fluorophenyl)-(2-methoxy-5-methylphenoxy)methyl] morpholine hydrochloride]
0.0266	0.344	Fc1ccc(Cl)c(O[C@@H](c2cccc(Cl)c2)[C@@H]2CNCCO2)c1 [Example 53, (2S)-2-[(1S)-(2-Chloro-5-fluorophenoxy) (3-chlorophenyl)methyl] morpholine hydrochloride]
0.0237	0.0417	COc1cc(Cl)ccc1O[C@@H](c1cccc(C)c1)[C@@H]1CNCCO1 [Example 54, (2S)-2-[(1S)-(4-Chloro-2-methoxyphenoxy)-m-tolyl-methyl] morpholine hydrochloride]
0.0204	0.109	COc1cc(C)ccc1O[C@@H](c1cccc(C)c1)[C@@H]1CNCCO1 [Example 55, (2S)-2-[(1S)-(2-Methoxy-4-methylphenoxy)-m-tolyl-methyl] morpholine hydrochloride]
0.0197	0.544	COc1cc(F)ccc1O[C@@H](c1cccc(C)c1)[C@@H]1CNCCO1 [Example 57, (2S)-2-[(1S)-(4-Fluoro-2-methoxyphenoxy)-m-tolyl-methyl] morpholine hydrochloride]
0.0429	0.474	COc1ccc(O[C@@H](c2cccc(C)c2)[C@@H]2CNCCO2)c(OC)c1 [Example 58, (2S)-2-[(1S)-(2,4-Dimethoxyphenoxy)-m-tolyl-methyl] morpholine hydrochloride]
0.0103	0.524	Cc1cccc([C@H](Oc2cc(F)ccc2Cl)[C@@H]2CNCCO2)c1 [Example 59, (2S)-2-[(1S)-(2-Chloro-5-fluorophenoxy)-m-tolyl-methyl] morpholine hydrochloride]
0.00191	0.314	Fc1cccc([C@H](Oc2c(F)cccc2Cl)[C@@H]2CNCCO2)c1 [Example 60, (2S)-2-[(1S)-(2-Chloro-6-fluorophenoxy) (3-fluorophenyl)methyl] morpholine hydrochloride]
0.0201	0.038	COc1cccc([C@H](Oc2ccc(Cl)cc2OC)[C@@H]2CNCCO2)c1 [Example 61, (2S)-2-[(1S)-(4-Chloro-2-methoxyphenoxy) (3-methoxyphenyl)methyl] morpholine hydrochloride]

Ki [1] [µM]	Ki [2] [µM]	SMILES
0.00321	0.124	COc1cccc([C@H](Oc2ccc(F)cc2Cl)[C@@H]2CNCCO2)c1 [Example 63, (2S)-2-[(1S)-(2-Chloro-4-fluorophenoxy)-(3-methoxyphenyl)methyl] morpholine hydrochloride]
0.0138	0.511	Fc1cccc([C@H](Oc2ccc(F)cc2F)[C@@H]2CNCCO2)c1 [Example 64, (2S)-2-[(1S)-(2,4-Difluorophenoxy) (3-fluoro-phenyl)methyl] morpholine hydrochloride]
0.0157	0.511	Fc1cccc([C@H](Oc2c(F)cc(F)cc2F)[C@@H]2CNCCO2)c1 [Example 65, (2S)-2-[(1S)-(3-Fluorophenyl) (2,4,6-trifluorophenoxy)methyl] morpholine hydrochloride]
0.0199	1.03	CCCc1ccccc1O[C@@H](c1cccc(F)c1)[C@@H]1CNCCO1 [Example 66, (2S)-2-[(1S)-(3-Fluorophenyl) (2-propylphenoxy)methyl] morpholine hydrochloride]
0.39	0.0355	Fc1cccc([C@H](Oc2ccc(C(F)(F)F)cc2)[C@@H]2CNCCO2)c1 [Example 67, (2S)-2-[(1S)-(3-Fluorophenyl) (4-trifluoromethyl phenoxy)methyl] morpholine hydrochloride]
0.0201	0.408	COc1cccc([C@H](Oc2ccc(F)cc2OC)[C@@H]2CNCCO2)c1 [Example 68, (2S)-2-[(1S)-(4-Fluoro-2-methoxyphenoxy) (3-methoxyphenyl)methyl] morpholine hydrochloride]
0.00792	0.687	COc1cccc([C@H](Oc2cc(F)ccc2Cl)[C@@H]2CNCCO2)c1 [Example 69, (2S)-2-[(1S)-(2-Chloro-5-fluorophenoxy) (3-methoxyphenyl)methyl] morpholine hydrochloride]
0.0286	0.0777	COc1cc(F)ccc1O[C@@H](c1ccc(Cl)cc1)[C@@H]1CNCCO1 [Example 71, (2S)-2-[(1S)-(4-Chloro-phenyl) (4-fluoro-2-methoxyphenoxy)methyl] morpholine hydrochloride]
0.0916	0.0789	Fc1ccc(O[C@@H](c2ccc(Cl)cc2)[C@@H]2CNCCO2)c(Cl)c1 [Example 72, (2S)-2-[(1S)-(2-Chloro-4-fluorophenoxy) (4-chlorophenyl)methyl] morpholine hydrochloride]
0.0757	0.014	COc1cc(Cl)ccc1O[C@@H](c1ccc(Cl)cc1)[C@@H]1CNCCO1 [Example 73, (2S)-2-[(1S)-(4-Chloro-2-methoxyphenoxy) (4-chlorophenyl)methyl] morpholine hydrochloride]
0.0186	0.138	Fc1ccc([C@H](Oc2ccc(F)cc2Cl)[C@@H]2CNCCO2)cc1 [Example 74, (2S)-2-[(1S)-(2-Chloro-4-fluorophenoxy) (4-fluorophenyl)methyl] morpholine hydrochloride]
0.0071	0.0264	Clc1cccc(O[C@@H](c2ccccc2)[C@@H]2CNCCO2)c1Cl [Example 81, (2S)-2-[(1S)-(2,3-Dichlorophenoxy)phenylmethyl] morpholine fumarate]
0.0119	0.0121	Cc1c(Cl)cccc1O[C@@H](c1ccccc1)[C@@H]1CNCCO1 [Example 82, (2S)-2-[(1S)-(3-Chloro-2-methylphenoxy)phenylmethyl] morpholine fumarate]
0.0089	0.222	Fc1cc(F)c(Cl)c(O[C@@H](c2ccccc2)[C@@H]2CNCCO2)c1 [Example 83, (2S)-2-[(1S)-(2-Chloro-3,5-difluorophenoxy)phenylmethyl]morpholine fumarate]
0.0101	0.437	COc1ccc(Cl)cc1O[C@@H](c1ccccc1)[C@@H]1CNCCO1 [Example 84, (2S)-2-[(1S)-(5-Chloro-2-methoxyphenoxy)phenylmethyl]morpholine fumarate]
0.0109	0.385	Fc1c(F)c(F)c(O[C@@H](c2ccccc2)[C@@H]2CNCCO2)c(F)c1F [Example 85, (2S)-2-[(1S)-(Pentafluorophenyloxy) (phenyl)methyl] morpholine fumarate]

— patent publication US20080161309A1, “Novel Compounds” (priority 2004, published 2008)
